Active and inactive are the calls of the source.
Columns and labels:
[1] = molecular target: Large T antigen (Simian virus 40, UniProt P03070); type: functional, Betapolyomavirus macacae;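 also: Confirmatory-stage PubChem screen for compounds that inhibit SV40 T antigen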
[2] = molecular target: T1, Corticotropin-releasing factor receptor 2/Corticotropin-releasing factor-binding protein (Homo sapiens, UniProt P24387+Q13324); assay: activators of CRF receptor 2 with binding protein – uHTS hits, confirmation (AID 602473); type: functional; details: read-out: EC50_Mean
T1 sequence (Q13324 whole entry): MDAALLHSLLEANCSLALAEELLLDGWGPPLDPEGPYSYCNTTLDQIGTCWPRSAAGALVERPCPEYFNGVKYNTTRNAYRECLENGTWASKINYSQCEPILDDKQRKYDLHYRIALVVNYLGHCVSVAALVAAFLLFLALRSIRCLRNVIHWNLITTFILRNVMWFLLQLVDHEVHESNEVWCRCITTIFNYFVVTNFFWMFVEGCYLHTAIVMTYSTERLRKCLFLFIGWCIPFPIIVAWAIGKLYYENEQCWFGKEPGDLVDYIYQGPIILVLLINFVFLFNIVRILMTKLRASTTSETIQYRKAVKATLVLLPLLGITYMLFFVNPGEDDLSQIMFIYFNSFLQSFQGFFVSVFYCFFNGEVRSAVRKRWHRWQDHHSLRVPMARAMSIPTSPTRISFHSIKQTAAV
T1 sequence (P24387 whole entry): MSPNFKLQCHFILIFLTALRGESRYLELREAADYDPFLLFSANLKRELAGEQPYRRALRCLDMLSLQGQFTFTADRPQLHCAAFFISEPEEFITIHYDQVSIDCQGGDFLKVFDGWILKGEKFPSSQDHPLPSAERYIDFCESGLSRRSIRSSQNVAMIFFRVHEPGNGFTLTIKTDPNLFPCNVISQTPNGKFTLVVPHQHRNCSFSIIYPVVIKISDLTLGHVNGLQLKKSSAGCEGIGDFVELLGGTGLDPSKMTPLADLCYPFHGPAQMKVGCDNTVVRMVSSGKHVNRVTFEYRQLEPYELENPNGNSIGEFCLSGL

[3] = molecular target: Cytochrome P450 2C9 (Homo sapiens, UniProt P11712)
Cytochrome P450 2C9, sequence (P11712 whole entry): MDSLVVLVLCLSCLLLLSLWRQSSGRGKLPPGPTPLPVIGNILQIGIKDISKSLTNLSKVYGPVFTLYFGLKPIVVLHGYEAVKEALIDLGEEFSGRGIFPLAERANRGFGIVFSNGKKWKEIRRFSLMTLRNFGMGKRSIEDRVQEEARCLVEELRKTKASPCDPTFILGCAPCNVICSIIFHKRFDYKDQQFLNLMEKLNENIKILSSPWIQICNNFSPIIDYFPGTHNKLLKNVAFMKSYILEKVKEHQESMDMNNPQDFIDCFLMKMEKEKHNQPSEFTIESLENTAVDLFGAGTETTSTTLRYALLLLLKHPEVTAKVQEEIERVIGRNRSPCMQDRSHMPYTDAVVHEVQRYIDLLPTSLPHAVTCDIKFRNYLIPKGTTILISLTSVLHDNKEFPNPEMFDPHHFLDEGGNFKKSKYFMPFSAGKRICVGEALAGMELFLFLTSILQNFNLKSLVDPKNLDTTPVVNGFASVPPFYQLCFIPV

[4] = molecular target: T2, Cytochrome P450 1A2 (Homo sapiens, UniProt P05177);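 also: PubChem cytochrome P450 panel assay, CYP1A2 panel member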
T2 sequence (P05177 whole entry): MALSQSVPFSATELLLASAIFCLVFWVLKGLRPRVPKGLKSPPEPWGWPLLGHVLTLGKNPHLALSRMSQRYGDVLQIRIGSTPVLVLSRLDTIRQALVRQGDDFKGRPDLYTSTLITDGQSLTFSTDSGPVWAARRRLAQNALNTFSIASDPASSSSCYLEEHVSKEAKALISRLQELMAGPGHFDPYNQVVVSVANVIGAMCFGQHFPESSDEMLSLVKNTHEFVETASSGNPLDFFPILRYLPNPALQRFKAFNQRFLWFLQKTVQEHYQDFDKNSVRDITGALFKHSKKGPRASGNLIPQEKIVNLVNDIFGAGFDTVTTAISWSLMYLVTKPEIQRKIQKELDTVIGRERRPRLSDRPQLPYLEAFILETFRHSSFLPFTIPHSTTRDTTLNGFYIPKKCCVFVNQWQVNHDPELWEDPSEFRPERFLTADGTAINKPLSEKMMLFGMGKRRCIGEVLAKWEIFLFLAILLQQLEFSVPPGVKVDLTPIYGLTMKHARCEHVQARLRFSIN

[5] = molecular target: Cytochrome P450 2C19 (Homo sapiens, UniProt P33261); assay: Cytochrome panel assay with activity outcomes. Panel member name: p450-cyp2c19 Compounds with AC50 equal or less than 10 uM are considered active; type: functional; details: read-out: AC50
Cytochrome P450 2C19, sequence (P33261 whole entry): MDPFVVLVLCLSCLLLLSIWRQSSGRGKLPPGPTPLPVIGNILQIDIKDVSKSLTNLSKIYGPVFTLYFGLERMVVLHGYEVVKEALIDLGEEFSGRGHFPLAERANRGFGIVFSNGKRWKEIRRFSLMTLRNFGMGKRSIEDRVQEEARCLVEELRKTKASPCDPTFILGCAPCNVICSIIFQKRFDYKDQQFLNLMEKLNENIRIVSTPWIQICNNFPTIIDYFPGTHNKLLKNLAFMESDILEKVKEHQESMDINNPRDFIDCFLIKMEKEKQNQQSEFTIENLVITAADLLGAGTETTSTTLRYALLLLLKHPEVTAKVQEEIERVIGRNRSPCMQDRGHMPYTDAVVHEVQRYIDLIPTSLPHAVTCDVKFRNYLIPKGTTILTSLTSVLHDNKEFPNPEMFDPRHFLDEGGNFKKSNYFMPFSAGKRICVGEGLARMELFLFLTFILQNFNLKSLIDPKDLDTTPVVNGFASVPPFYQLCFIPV

[6] = molecular target: Luciferin 4-monooxygenase (Photinus pyralis, UniProt P08659); assay: inhibition of purified Photinus pyralis luciferase – biochemical, luminescence, dose response (AID 1891)
Luciferin 4-monooxygenase, sequence (P08659 whole entry): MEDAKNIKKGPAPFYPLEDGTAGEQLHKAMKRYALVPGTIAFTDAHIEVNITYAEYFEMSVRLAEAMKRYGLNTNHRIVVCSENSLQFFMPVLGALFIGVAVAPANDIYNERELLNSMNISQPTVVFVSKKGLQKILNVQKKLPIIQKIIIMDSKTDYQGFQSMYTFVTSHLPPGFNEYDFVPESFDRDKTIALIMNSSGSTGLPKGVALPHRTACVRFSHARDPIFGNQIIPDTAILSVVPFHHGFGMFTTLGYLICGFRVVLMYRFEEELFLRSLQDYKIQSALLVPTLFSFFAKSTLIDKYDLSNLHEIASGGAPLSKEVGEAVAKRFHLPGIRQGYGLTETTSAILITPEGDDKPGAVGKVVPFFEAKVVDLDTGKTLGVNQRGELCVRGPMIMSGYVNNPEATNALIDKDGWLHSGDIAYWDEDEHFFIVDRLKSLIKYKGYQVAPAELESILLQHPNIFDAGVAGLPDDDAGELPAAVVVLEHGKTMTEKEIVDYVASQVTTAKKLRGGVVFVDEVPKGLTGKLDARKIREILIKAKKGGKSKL

[7] = Luminescence Cell-Based Dose Confirmation HTS to Identify Inhibitors of Platelet Dense Granule Release. [Related pubchem assays: 1663 (Primary HTS), 1678 (Summary of Project)]; type: functional
[8] = molecular target: T3, Zinc finger protein mex-5 (Caenorhabditis elegans, UniProt Q9XUB2); assay: potency of MEX-5 RNA-binding blockers – biochemical, C. elegans, fluorescence polarization, dose response (AID 1960)
T3 sequence (Q9XUB2 whole entry): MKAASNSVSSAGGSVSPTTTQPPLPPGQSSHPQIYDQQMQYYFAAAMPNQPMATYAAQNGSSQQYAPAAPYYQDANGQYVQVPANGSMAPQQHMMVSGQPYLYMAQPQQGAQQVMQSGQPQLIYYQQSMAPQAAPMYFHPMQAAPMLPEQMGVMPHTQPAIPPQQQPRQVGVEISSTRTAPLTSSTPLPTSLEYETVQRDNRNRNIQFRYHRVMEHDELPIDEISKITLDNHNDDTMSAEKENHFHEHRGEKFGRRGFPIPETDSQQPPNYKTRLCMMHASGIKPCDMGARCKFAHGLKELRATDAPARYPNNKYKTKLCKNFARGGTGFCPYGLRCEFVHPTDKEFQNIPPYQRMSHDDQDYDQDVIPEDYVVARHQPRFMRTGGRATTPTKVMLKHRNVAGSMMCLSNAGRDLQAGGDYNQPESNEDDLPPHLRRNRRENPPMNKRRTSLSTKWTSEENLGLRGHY

[9] = molecular target: T4, RNA-binding protein pos-1 (Caenorhabditis elegans, UniProt G5EF15); assay: disruptors of C. elegans POS-1 RNA interaction – biochemical, fluorescence polarization, dose response (AID 1964);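 also: purified POS-1 fused to maltose binding protein made in E. coli; potency of compounds blocking POS-1 binding to fluorescent RNA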
T4 sequence (G5EF15 whole entry): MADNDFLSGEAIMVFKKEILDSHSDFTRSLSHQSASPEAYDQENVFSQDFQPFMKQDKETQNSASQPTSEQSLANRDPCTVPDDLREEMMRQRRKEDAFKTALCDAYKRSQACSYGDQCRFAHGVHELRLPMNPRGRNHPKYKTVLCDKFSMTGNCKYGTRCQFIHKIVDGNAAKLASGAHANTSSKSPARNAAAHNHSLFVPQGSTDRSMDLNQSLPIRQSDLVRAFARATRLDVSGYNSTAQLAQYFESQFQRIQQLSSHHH

[10] = test system: BJ; assay: BJ-TERT fibroblast viability loss – cell-based, RAS-independent, luminescence, dose response (AID 1933); type: functional; details: Homo sapiens
[11] = alpha-synuclein stem-loop luciferase translation blockers – H4 neuroglioma cells, luminescence, confirmation (AID 1988); type: functional, cell-based
[12] = test system: BJ; assay: cells; type: functional, cell-based; details: Homo sapiens
[13] = DRD fibroblast viability loss – cell-based, non-viral oncogenic, luminescence, dose response (AID 1934); type: functional; details: Homo sapiens
[14] = test system: BJ; assay: BJ-TERT-LT-ST fibroblast viability loss – cell-based, RAS-independent, luminescence, dose response (AID 1935); type: functional; details: Homo sapiens;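 also: BJ fibroblasts immortalized with TERT plus LT and ST oncogenes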
[15] = non-specific 3'UTR reporter inhibition in Clone20-Shn3RL – cell-based, Renilla luciferase, cherry-picked, counter-screen for Shn3 inhibitor project, dose response (AID 624133); type: functional
[16] = loss of viability in HepG2 cells – cell-based, CellTiter-Glo, cherry-picked, cytotoxicity control for Shn3 inhibitor project, dose response (AID 624134); type: functional
[17] = reduction of Shn3 3'UTR-driven luciferase in osteoblasts – cell-based, Clone20 osteoblasts, firefly luciferase, cherry-picked, dose response (AID 624132); type: functional;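 also: firefly luciferase luminescence from reporter carrying the Shn3 3'UTR in osteoblasts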
[18] = test system: INS1; assay: INS-1E survival protection against cytokine death – cell-based, luminescence, retest, dose response (AID 449756); type: functional; details: Rattus norvegicus;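 also: cell death triggered by IL-1 beta plus TNF-alpha plus IFN-gamma mixture; protective hits raise ATP signal compared with cytokine alone wells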
[19] = molecular target: T5, Heat shock factor protein 1 (Mus musculus, UniProt P38532); assay: enhancement of HSF1-driven luciferase signal – cell-based, NIH3T3, luminescence, dose retest, confirmation (AID 435004); type: functional;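 also: stress induced by proteasome inhibitor MG132 added 30 min after compound; luciferase reporter driven by HSF1 response element in NIH3T3 cells; actives raise luminescence as potentiators of the MG132 stress response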
T5 sequence (P38532 whole entry): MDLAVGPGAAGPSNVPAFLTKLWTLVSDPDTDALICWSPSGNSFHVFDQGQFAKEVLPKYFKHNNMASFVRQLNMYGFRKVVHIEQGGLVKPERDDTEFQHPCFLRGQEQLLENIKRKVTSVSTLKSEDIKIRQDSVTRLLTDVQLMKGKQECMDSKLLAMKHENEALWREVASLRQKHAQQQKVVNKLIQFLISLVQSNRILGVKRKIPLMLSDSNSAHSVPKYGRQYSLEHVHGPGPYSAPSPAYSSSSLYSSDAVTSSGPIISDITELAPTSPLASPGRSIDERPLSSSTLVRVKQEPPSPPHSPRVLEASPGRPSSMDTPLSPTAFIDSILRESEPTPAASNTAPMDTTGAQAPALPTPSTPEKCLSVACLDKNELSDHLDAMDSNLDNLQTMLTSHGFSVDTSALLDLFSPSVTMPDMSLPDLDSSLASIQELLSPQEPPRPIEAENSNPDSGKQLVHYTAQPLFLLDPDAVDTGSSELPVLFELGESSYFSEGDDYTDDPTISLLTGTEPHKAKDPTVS

Large T antigen, sequence (P03070 whole entry): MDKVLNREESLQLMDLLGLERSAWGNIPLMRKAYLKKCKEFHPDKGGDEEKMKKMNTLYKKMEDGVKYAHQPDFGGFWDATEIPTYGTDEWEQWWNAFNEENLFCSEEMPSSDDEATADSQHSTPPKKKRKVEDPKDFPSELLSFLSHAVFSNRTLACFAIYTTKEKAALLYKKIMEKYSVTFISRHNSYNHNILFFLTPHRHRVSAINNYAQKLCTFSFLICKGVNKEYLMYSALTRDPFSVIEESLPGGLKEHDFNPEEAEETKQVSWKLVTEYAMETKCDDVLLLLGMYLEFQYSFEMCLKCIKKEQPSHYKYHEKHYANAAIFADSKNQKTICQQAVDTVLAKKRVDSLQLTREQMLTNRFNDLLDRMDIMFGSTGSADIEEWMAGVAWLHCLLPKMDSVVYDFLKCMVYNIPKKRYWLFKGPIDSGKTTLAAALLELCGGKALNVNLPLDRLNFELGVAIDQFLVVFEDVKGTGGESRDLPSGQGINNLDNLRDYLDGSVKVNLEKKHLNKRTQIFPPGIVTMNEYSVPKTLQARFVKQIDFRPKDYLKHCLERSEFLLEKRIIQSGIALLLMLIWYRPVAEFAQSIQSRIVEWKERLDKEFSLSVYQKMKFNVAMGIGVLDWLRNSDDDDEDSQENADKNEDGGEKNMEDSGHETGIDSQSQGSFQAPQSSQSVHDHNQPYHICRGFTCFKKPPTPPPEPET

## Cc1ccc(S(=O)(=O)CCC(=O)Oc2ccc3c(C)cc(=O)oc3c2)cc1
[1]
  IC50: 48.6 µM (active)

## Cc1ccc(CN2CCN(/N=C/C(Br)=C\c3ccccc3)CC2)cc1
[2]
  EC50: > 53 µM (inactive)

## CCCC[C@H](CC)CNC(=N)NC(=N)NCCCCCCNC(=N)NC(=N)NC[C@@H](CC)CCCC
[3]
  AC50: 20 µM (inconclusive)
[4]
  AC50: 15.8 µM (inconclusive)
[5]
  AC50: 3.98 µM (inconclusive)

## COc1cc(Cl)ccc1OCc1cc(C(=O)N2C[C@]3(C)C[C@H]2CC(C)(C)C3)no1
[6]
  EC50: 27 µM (active)
[7]
  EC50: > 112 µM (not active)

## O=C(C(Cc1ccccc1)n1cccc1)N1CCN(c2ncccn2)CC1 (stereo not drawn)
[6]
  EC50: > 112 µM (not active)
[7]
  EC50: > 112 µM (not active)

## CCOC(=O)C1CCN(C(=O)c2ccc3c(c2)NC(=O)/C(=C\c2ccc(C)cc2)S3)CC1
[8]
  EC50: 30.8 µM (active)
[9]
  EC50: 7.37 µM (active)

## Cc1cccc(-c2cnn(-c3ccccc3)c2N)c1
[6]
  EC50: 46 µM (active)
[7]
  EC50: 31.7 µM (active)

## Cc1c(Cl)cccc1NC(=O)Nc1ccc(C(=O)N2CCCC2)cc1
[6]
  EC50: 1.94 µM (active)
[7]
  EC50: 30.4 µM (active)

## Oc1nc(/C=C/c2ccccc2F)nc2ccccc12
[10]
  EC50: 2.12 µM (active)
[11]
  EC50: 7.23 µM (inconclusive)
[12]
  EC50: 45.2 µM (inconclusive)
[13]
  EC50: 2.25 µM (active)
[14]
  EC50: 29.3 µM (inconclusive)

## CSc1ccc(C(=O)C2CCCN(S(=O)(=O)c3c(C)noc3C)C2)cc1 (stereo not drawn)
[6]
  EC50: > 112 µM (not active)
[7]
  EC50: > 112 µM (not active)

## Cn1c(=O)c2c(nc(CN3CCOCC3)n2CC(=O)c2ccccc2)n(C)c1=O
[6]
  EC50: > 112 µM (not active)
[7]
  EC50: 39 µM (active)

## Cc1nnc(NC(=O)CSc2cn(CCNC(=O)c3ccccc3)c3ccccc23)s1
[6]
  EC50: > 112 µM (not active)
[7]
  EC50: 80 µM (active)

## CCN1CCN(Cc2ccc(NC(=O)c3cc(NC(=O)c4cncc(-c5cccs5)c4)cc(OC)c3)cc2C(F)(F)F)CC1
[15]
  AC50: 27.3 µM (active)
[16]
  AC50: > 70 µM (inactive)
[17]
  AC50: 9.68 µM (active)

## Cc1ccnc(NC(=O)c2ccoc2C)c1
[6]
  EC50: 17.5 µM (active)
[7]
  EC50: 3.51 µM (active)

## COc1cc(SC)ccc1C(=O)N1CCN(Cc2ccccc2)CC1
[1]
  IC50: 53.8 µM (active)

## Cc1ccc(-c2sc(-c3ccccc3)nc2CC(=O)Nc2ccccc2F)cc1
[2]
  EC50: > 53 µM (inactive)
[18]
  AC50: 2.27 µM (active)

## COc1ccc(NC(=O)CN2CCC(NC(=O)C3CCCCC3)CC2)c([N+](=O)[O-])c1
[8]
  EC50: > 300 µM (not active)
[9]
  EC50: 67.9 µM (active)

## O=C(Nc1ccccc1O)c1cccc(S(=O)(=O)Nc2ccccc2O)c1
[8]
  EC50: 36.2 µM (active)
[19]
  EC50: > 260 µM (inactive)
[9]
  EC50: 59.1 µM (active)

## CCN1/C(=C2\SC(=S)N(Cc3ccccc3)C2=O)Sc2ccccc21
[2]
  EC50: > 53 µM (inactive)

## COc1ccc(NC(=O)CN(C)C(=O)CSc2ccc3c(c2)OCCO3)cc1
[2]
  EC50: > 53 µM (inactive)

## Cc1c(C(=O)O)cccc1-n1c(C)cc(C=O)c1C
[8]
  EC50: > 300 µM (not active)
[9]
  EC50: > 300 µM (not active)

## CC(=O)c1cccc(-n2nnnc2SCC(=O)N2CCCC2)c1
[6]
  EC50: > 112 µM (not active)
[7]
  EC50: > 112 µM (not active)

## COc1ccc(CC(=O)NNC2=Nc3cccc4cccc2c34)cc1
[8]
  EC50: > 150 µM (inconclusive)
[9]
  EC50: 119 µM (inconclusive)

## NC(Cc1ccc(Cl)cc1)c1csc(NC(=O)NCC2CCCCC2)n1 (stereo not drawn)
[15]
  AC50: 9.27 µM (active)
[16]
  AC50: 11.1 µM (active)
[17]
  AC50: 6.58 µM (active)

## O=C(OCC(=O)c1ccco1)c1ccc2ncsc2c1
[8]
  EC50: > 300 µM (not active)
[9]
  EC50: > 300 µM (not active)

## O=C(CCN1C(=O)/C(=C\c2ccccc2F)SC1=S)N1CCCCC1
[10]
  EC50: 15.8 µM (active)
[12]
  EC50: 14.4 µM (active)
[13]
  EC50: 15.5 µM (active)
[14]
  EC50: > 75 µM (not active)

## Cc1ccc(S(=O)(=O)N(CCCN2CCCC2=O)Cc2cc3c(C)ccc(C)c3[nH]c2=O)cc1
[8]
  EC50: > 300 µM (not active)
[9]
  EC50: > 300 µM (not active)

## CC(C)CCN1C(=O)c2ccc(-c3nc4ccccc4c(=O)o3)cc2C1=O
[3]
  AC50: 3.16 µM (inconclusive)
[4]
  AC50: 15.8 µM (inconclusive)

## Cc1cc2c(n1-c1ccc(C(=O)O)cc1)CCCCC2
[1]
  IC50: 71.2 µM (active)

## Cc1ccc(/C=N/NC(=O)c2nn(C)cc2Cl)cc1
[6]
  EC50: 19.9 µM (active)
[7]
  EC50: 16.6 µM (active)

## CC(C)(C)NC(=O)CN1CCN(C(=O)CCl)CC1
[10]
  EC50: > 150 µM (not active)
[12]
  EC50: > 150 µM (inconclusive)
[13]
  EC50: > 150 µM (not active)
[14]
  EC50: > 150 µM (not active)

## Cc1cccc(-n2c(C)cc(/C=C3\C(=N)N4N=C(CC(C)C)SC4=NC3=O)c2C)c1
[2]
  EC50: 24.2 µM (active)
